How the values were obtained:
[1] = target: T1, extracellular subunit of TfR recombinant human protein, N-His Tag (Homo sapiens, UniProt P02786); assay: TfR binding ELISA (FAM-labelled shuttles on TfR-coated plates); conditions: plates coated with 1 µg/ml TfR, 1 h at room temp in PBS, anti-FAM HRP antibody (streptavidin peroxidase for Tf-biotin), absorption 450 nm, read-out: apparent binding affinity (EC50) to TfR
T1 construct: extracellular subunit of TfR; purchased Life Technologies
Description: To evaluate functionality of the conjugated peptides, in vitro analyses were performed. TfR binding was assessed through an ELISA format, whereby FAM-conjugated shuttles were serially diluted and added to plates that were coated with TfR protein. FAM-labelled vehicles were detected by an anti-FAM HRP-conjugated antibody.
The procedure was performed at room temp on a shaking platform using PBS-Tween (0.05%) for the wash steps. Nickel coated clear 96-well plates (Pierce) was coated overnight with 1 µg/ml of the extracellular subunit of TfR recombinant human protein, N-His Tag (Life Technologies) in 0.5 M Carbonate buffer. The plates were washed (5 × 150 µL) and blocked for 1 h with PBS containing 1% BSA. 100 µL of the compound dilutions in PBS were transferred to the plate and incubated for 1 h at room temp, after which time the plates were washed (5 × 150 µL). A Goat anti-FAM peroxidase labelled antibody (Abcam, 1:100 000) was added to the wells and incubated for 30 min. Following 6 washes, 50 µL of TMB Substrate Solution (Sigma) was added per well and incubated for a further 30 min. After addition of 50 µL of 2 M sulphuric acid to each well , receptor complexes were detected by measuring absorption at 450 nm. The procedure for determining the binding affinity of biotin labelled Tf (Sigma) was similar except streptavidin peroxidas e (ThermoFisher Scientific) (1:20 000) was used to measure the Tf -receptor complex.
Imaging and Immunochemistry
Colocalis ation of delivery scaffolds with LAMP1 and Tf -A647 bEND.3 cells were seeded at a density of 1 x 10^4 cells/we ll in 8-well glass plates (ibidi ) coated with rat tail collagen. After 3 days at 100 % confluence, cells were washed with PBS (3 × 180 µL), and co-incubated with brain delivery scaffolds (5 µM) and Tf-A647 (50 µg/ml) at 37 °C for 2 h in FluoroBrite DMEM media (Thermofisher). Cells were washed with PBS (3 × 180 µL), then fixed with 4 % paraformaldehyde for 15 min at room temperature. […]

TfR = conditions: micromolar affinity; read-out: affinity towards the receptor (TfR); cited from earlier work
From the text: To enable targeted brain delivery, we chose to functionalise our scaffold with established ligands that engage the transferrin receptor (TfR) and low-density lipoprotein-receptor related protein (LRP1). The relative abundance of these receptors on brain endothelial, alongside their high transport capacity, made them ideal targets for RMT mediated delivery and both have been actively explored in research.[8],[14]–[16]

T1 sequence (P02786 89-760 limits assumed): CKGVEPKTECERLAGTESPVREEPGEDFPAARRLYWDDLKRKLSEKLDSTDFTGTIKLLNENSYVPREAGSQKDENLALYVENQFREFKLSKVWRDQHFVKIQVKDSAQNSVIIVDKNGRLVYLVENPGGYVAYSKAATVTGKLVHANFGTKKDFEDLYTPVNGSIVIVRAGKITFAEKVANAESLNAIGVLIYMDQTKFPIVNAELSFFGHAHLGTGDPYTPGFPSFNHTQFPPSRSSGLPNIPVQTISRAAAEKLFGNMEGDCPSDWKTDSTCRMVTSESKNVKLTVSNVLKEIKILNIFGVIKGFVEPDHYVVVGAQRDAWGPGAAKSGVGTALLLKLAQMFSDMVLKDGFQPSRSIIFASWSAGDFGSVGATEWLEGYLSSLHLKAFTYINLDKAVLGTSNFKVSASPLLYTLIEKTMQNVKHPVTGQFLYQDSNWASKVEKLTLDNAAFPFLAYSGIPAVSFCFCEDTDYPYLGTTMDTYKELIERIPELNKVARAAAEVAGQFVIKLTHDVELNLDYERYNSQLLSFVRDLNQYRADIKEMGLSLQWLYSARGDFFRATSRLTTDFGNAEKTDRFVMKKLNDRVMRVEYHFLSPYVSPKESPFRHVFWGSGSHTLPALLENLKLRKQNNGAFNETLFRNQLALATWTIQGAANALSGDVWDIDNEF

| Compound | EC50 [1] [nM] | Kd (TfR) [nM] |
| --- | --- | --- |
| CC[C@H](C)[C@H](NC(=O)[C@H](C)NC(=O)[C@H](Cc1c[nH]cn1)NC(=O)[C@@H](N)CCCCn1cc(C[C@H](NC(=O)[C@H](CCCNC(=N)N)NC(=O)[C@@H](NC(=O)[C@@H]2CCCN2C(=O)[C@@H]2CCCN2C(=O)[C@@H]2CCCN2C(=O)[C@H](CC(C)C)NC(=O)[C@H](CCCNC(=N)N)NC(=O)[C@@H](NC(=O)[C@@H]2CCCN2C(=O)[C@@H]2CCCN2C(=O)[C@@H]2CCCN2C(=O)[C@H](Cc2cn(CCCC[C@H](N)C(=O)N[C@@H](Cc3c[nH]cn3)C(=O)N[C@@H](C)C(=O)N[C@H](C(=O)N[C@@H](Cc3ccc(O)cc3)C(=O)N3CCC[C@H]3C(=O)N[C@@H](CCCNC(=N)N)C(=O)N[C@@H](Cc3c[nH]cn3)C(N)=O)[C@@H](C)CC)nn2)NC(=O)[C@H](CCCNC(=N)N)NC(=O)[C@@H](NC(=O)c2ccc3c(c2)C(=O)OC32c3ccc(O)cc3Oc3cc(O)ccc32)C(C)C)C(C)C)C(C)C)C(=O)N2CCC[C@H]2C(=O)N2CCC[C@H]2C(=O)N2CCC[C@H]2C(N)=O)nn1)C(=O)N[C@@H](Cc1ccc(O)cc1)C(=O)N1CCC[C@H]1C(=O)N[C@@H](CCCNC(=N)N)C(=O)N[C@@H](Cc1c[nH]cn1)C(N)=O [PPII(L3X;L15X)TfRL2] | 11.8 ± 1.11 |  |
| Tf-biotin: biotin labelled transferrin (Sigma) [reference compound] | 20.9 ± 2.1 |  |
| CC[C@H](C)[C@H](NC(=O)[C@H](C)NC(=O)[C@H](Cc1c[nH]cn1)NC(=O)[C@@H](N)CCCCn1cc(C[C@H](NC(=O)[C@@H]2CCCN2C(=O)[C@@H]2CCCN2C(=O)[C@@H]2CCCN2C(=O)[C@H](CC(C)C)NC(=O)[C@H](CCCNC(=N)N)NC(=O)[C@@H](NC(=O)[C@@H]2CCCN2C(=O)[C@@H]2CCCN2C(=O)[C@@H]2CCCN2C(=O)[C@H](Cc2cn(CCCC[C@H](N)C(=O)N[C@@H](Cc3c[nH]cn3)C(=O)N[C@@H](C)C(=O)N[C@H](C(=O)N[C@@H](Cc3ccc(O)cc3)C(=O)N3CCC[C@H]3C(=O)N[C@@H](CCCNC(=N)N)C(=O)N[C@@H](Cc3c[nH]cn3)C(N)=O)[C@@H](C)CC)nn2)NC(=O)[C@H](CCCNC(=N)N)NC(=O)[C@@H](NC(=O)c2ccc3c(c2)C(=O)OC32c3ccc(O)cc3Oc3cc(O)ccc32)C(C)C)C(C)C)C(=O)N[C@@H](CCCNC(=N)N)C(=O)N[C@@H](CC(C)C)C(=O)N2CCC[C@H]2C(=O)N2CCC[C@H]2C(=O)N2CCC[C@H]2C(N)=O)nn1)C(=O)N[C@@H](Cc1ccc(O)cc1)C(=O)N1CCC[C@H]1C(=O)N[C@@H](CCCNC(=N)N)C(=O)N[C@@H](Cc1c[nH]cn1)C(N)=O [PPII(L3X;V13X)TfRL2] | 12.7 ± 1.37 |  |
| HAIYPRH [TfRL2] |  | 440000 |

From PMC7006505, “Chemical biology tools for probing transcytosis at the blood–brain barrier” (Chemical Science, 2019)
